These results are taken from patent publication US10308643B2, “Heterocyclic compound” (Takeda Pharmaceutical Company Limited, priority 2015, dated 2019).

Structures are written as SMILES.

Common to all, as to assay type: biochemical
One experiment addresses T1, HDAC9 enzyme (Homo sapiens, UniProt Q9UKV0).
T1 construct: transducing full length HDAC9 gene into Sf-9 insect cells; made in house; host or cells: Sf-9 insect cells
Kind of experiment: HDAC9 Enzyme Inhibitory Assay (HDAC-Glo class IIa). Conditions: 1 μM test compound; wells without enzyme = 100% inhibition; read-out: HDAC9 inhibitory rate (%) (1 μM). The procedure, abridged: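 Luminescent HDAC-Glo class IIa readout after a 20 min room-temperature reaction; relative inhibition referenced to enzyme-free wells as 100%. Test compound first preincubated 60 min with Sf-9-expressed, Ni-NTA-purified full-length HDAC9 in pH 7.5 Tris buffer containing 135 mM NaCl, 0.6 mM glutathione and 0.01% Tween-20.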

For the next experiment, the target named is T2, HDAC6 enzyme (Homo sapiens, UniProt Q9UBN7).
T2 construct: transducing full length HDAC1 and HDAC6 genes into Sf-9 insect cells; GST; purchased SignalChem; host or cells: Sf-9 insect cells
T2 sequence (Q9UBN7 1-1215): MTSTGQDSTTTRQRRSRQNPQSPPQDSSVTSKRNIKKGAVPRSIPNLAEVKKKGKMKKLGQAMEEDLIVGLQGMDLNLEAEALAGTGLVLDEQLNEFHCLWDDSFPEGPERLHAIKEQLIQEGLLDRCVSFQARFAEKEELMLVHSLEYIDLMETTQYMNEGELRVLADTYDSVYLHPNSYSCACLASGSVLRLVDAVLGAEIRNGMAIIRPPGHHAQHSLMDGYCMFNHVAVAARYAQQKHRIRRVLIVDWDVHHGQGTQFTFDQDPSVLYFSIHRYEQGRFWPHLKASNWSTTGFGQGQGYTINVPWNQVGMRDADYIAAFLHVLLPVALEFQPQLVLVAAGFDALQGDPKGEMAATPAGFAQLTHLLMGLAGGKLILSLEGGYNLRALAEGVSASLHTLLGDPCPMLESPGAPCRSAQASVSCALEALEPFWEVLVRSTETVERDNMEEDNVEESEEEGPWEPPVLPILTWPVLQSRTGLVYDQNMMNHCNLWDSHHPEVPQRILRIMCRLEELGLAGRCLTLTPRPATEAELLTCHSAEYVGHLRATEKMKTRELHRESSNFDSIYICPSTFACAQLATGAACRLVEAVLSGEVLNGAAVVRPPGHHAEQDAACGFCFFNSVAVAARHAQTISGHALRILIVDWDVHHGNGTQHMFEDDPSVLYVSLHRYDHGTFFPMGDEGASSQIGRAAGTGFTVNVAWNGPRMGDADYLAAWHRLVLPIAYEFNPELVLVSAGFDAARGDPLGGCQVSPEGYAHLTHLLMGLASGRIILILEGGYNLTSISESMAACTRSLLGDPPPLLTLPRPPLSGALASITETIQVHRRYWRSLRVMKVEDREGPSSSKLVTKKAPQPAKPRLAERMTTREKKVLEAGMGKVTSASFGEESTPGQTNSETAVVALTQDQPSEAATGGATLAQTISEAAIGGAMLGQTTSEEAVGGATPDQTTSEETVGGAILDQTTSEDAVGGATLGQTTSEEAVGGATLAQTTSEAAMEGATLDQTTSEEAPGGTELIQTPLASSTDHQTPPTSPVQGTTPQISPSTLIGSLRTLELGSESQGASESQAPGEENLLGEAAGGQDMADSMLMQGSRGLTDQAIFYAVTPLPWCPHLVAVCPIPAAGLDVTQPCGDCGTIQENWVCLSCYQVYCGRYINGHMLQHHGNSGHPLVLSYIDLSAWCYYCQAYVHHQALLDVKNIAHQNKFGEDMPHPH
Kind of experiment: HDAC1/6 Enzyme Inhibitory Assay (HDAC-Glo I/II Assay kit), HDAC6. Conditions: 1 μM test compound; wells without enzyme = 100% inhibition; read-out: HDAC6 inhibitory rate (%) (1 μM). The method, boiled down: (§1)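 Steps: compound in pH 7.5 Tris buffer plus enzyme (full-length HDAC1 or HDAC6 from Sf-9, GST-purified), 60 min at room temperature; add HDAC-Glo substrate-developer; react 20 min; read luminescence. Relative activity is calculated against enzyme-free wells taken as full inhibition.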

The target of another experiment is T3, HDAC1 enzyme (Homo sapiens, UniProt Q13547).
T3 construct: transducing full length HDAC1 and HDAC6 genes into Sf-9 insect cells; GST; purchased SignalChem; host or cells: Sf-9 insect cells
T3 sequence (Q13547 whole entry): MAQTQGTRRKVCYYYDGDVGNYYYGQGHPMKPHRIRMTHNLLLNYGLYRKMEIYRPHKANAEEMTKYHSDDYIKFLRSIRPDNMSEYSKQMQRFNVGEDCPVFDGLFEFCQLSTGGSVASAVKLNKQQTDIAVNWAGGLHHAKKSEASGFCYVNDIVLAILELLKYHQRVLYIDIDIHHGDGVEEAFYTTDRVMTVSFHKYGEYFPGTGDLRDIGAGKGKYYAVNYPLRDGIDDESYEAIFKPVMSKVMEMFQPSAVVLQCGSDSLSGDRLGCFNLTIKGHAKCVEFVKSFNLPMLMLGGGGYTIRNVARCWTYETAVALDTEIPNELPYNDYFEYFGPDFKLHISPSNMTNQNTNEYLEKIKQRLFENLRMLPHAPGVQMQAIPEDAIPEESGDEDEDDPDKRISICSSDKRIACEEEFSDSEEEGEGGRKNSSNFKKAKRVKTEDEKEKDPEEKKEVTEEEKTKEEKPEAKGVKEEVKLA
Kind of experiment: HDAC1/6 Enzyme Inhibitory Assay (HDAC-Glo I/II Assay kit), HDAC1. The following applies: 1 μM test compound; wells without enzyme = 100% inhibition; read-out: HDAC1 inhibitory rate (%) (1 μM). The procedure, abridged: as §1

T1 sequence (Q9UKV0 whole entry, species assumed): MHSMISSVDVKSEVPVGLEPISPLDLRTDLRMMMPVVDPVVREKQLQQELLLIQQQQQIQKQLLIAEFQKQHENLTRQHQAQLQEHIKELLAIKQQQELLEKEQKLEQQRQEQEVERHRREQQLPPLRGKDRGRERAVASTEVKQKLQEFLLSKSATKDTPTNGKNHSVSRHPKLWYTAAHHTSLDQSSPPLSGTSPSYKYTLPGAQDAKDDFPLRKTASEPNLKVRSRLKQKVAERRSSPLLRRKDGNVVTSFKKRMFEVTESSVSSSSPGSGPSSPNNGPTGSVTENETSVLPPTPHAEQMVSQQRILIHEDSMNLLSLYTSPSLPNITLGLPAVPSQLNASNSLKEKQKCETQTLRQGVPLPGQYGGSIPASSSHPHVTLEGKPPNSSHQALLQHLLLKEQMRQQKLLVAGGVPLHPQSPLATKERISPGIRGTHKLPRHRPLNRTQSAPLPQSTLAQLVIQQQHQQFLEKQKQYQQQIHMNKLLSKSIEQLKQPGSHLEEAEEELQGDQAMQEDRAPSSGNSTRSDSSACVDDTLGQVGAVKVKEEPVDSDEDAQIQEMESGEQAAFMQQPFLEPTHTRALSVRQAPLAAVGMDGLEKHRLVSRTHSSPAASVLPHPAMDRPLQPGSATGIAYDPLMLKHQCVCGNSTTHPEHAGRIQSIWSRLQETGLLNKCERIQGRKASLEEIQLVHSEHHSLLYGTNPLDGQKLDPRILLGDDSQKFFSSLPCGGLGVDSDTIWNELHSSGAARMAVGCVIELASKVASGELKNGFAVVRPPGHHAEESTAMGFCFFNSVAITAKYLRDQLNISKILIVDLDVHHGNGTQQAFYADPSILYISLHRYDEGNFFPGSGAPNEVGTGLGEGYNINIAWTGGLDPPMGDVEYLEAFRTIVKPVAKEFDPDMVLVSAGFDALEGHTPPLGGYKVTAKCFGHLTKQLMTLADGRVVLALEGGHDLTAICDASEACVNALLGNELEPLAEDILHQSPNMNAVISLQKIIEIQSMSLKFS

Take `CC(=O)N1CC(C)(C(=O)N[C@@H]2CCCC[C@H]2N2Cc3ccc(-c4noc(C(F)(F)F)n4)cc3C2=O)C1` [Example 195, 1-acetyl-3-methyl-N-((1R,2R)-2-(1-oxo-6-(5-(trif1uoromethyl)-1,2,4-oxadiazol-3-yl)-1,3-dihydro-2H-isoindol-2-yl)cyclohexyl)azetidine-3-carboxamide]: the inhibition at 1 µM on HDAC9 enzyme was found to be 57%; on HDAC6 enzyme it was 98%; at HDAC1 enzyme it was 1%.

Turning to `CN1CC(C)(C(=O)N[C@@H]2CCCC[C@H]2N2Cc3ccc(-c4noc(C(F)(F)F)n4)cc3C2=O)C1` [Example 196, 1,3-dimethyl-N-((1R,2R)-2-(1-oxo-6-(5-(trifluoromethyl)-1,2,4-oxadiazol-3-yl)-1,3-dihydro-2H-isoindol-2-yl)cyclohexyl)azetidine-3-carboxamide], the inhibition at 1 µM came out at 22% at HDAC9 enzyme, 101% on HDAC6 enzyme and 4% on HDAC1 enzyme.

Take `CC(C)(C)OC(=O)N1CC(C)(C(=O)N[C@@H]2CCCC[C@H]2N2Cc3ccc(-c4noc(C(F)(F)F)n4)cc3C2=O)C1` [Example 197, tert-butyl 3-methyl-3-(((1R,2R)-2-(1-oxo-6-(5-(trifluoromethyl)-1,2,4-oxadiazol-3-yl)-1,3-dihydro-2H-isoindol-2-yl)cyclohexyl)carbamoyl)azetidine-1-carboxylate]: the inhibition at 1 µM on HDAC9 enzyme was 48%; on HDAC6 enzyme, 100%; on HDAC1 enzyme it was 6%.

In the case of `O=C(N[C@H]1CCOC[C@@H]1N1Cc2ccc(-c3noc(C(F)(F)F)n3)cc2C1=O)[C@@H]1CC1(F)F` [Example 201, (1S)-2,2-difluoro-N-((3R,4S)-3-(1-oxo-6-(5-(trifluoromethyl)-1,2,4-oxadiazol-3-yl)-1,3-dihydro-2H-isoindol-2-yl)tetrahydro-2H-pyran-4-yl)cyclopropanecarboxamide], the values for the inhibition at 1 µM at HDAC9 enzyme, on HDAC6 enzyme and at HDAC1 enzyme were 86%, 98% and 16%, respectively.

For the compound `O=C(N[C@H]1CCOC[C@@H]1N1Cc2ccc(-c3noc(C(F)(F)F)n3)cc2C1=O)[C@H]1CC1(F)F` [Example 202, (1R)-2,2-difluoro-N-((3R,4S)-3-(1-oxo-6-(5-(trifluoromethyl)-1,2,4-oxadiazol-3-yl)-1,3-dihydro-2H-isoindol-2-yl)tetrahydro-2H-pyran-4-yl)cyclopropanecarboxamide], the results for the inhibition at 1 µM on HDAC9 enzyme, at HDAC6 enzyme and on HDAC1 enzyme were 59%, 99% and 13%, respectively.

For the compound `O=C(N[C@@H]1CCOC[C@H]1N1Cc2ccc(-c3noc(C(F)(F)F)n3)cc2C1=O)C1CCOC1` (stereo partly drawn) [Example 205, N-((3S,4R)-3-(1-oxo-6-(5-(trifluoromethyl)-1,2,4-oxadiazol-3-yl)-1,3-dihydro-2H-isoindol-2-yl)tetrahydro-2H-pyran-4-yl)tetrahydrofuran-3-carboxamide], the values for the inhibition at 1 µM on HDAC9 enzyme, at HDAC6 enzyme and at HDAC1 enzyme were 52%, 99% and 5%, respectively.

Turning to `O=C(N[C@@H]1CCOC[C@H]1N1Cc2ccc(-c3noc(C(F)(F)F)n3)cc2C1=O)[C@@H]1CCOC1` [Example 206, (3R)-N-((3S,4R)-3-(1-oxo-6-(5-(trifluoromethyl)-1,2,4-oxadiazol-3-yl)-1,3-dihydro-2H-isoindol-2-yl)tetrahydro-2H-pyran-4-yl)tetrahydrofuran-3-carboxamide], the inhibition at 1 µM at HDAC9 enzyme was 52%; on HDAC6 enzyme, 97%; on HDAC1 enzyme it was 5%.

Turning to `O=C(N[C@@H]1CCOC[C@H]1N1Cc2ccc(-c3noc(C(F)(F)F)n3)cc2C1=O)[C@H]1CCOC1` [Example 208, (3S)-N-((3S,4R)-3-(1-oxo-6-(5-(trifluoromethyl)-1,2,4-oxadiazol-3-yl)-1,3-dihydro-2H-isoindol-2-yl)tetrahydro-2H-pyran-4-yl)tetrahydrofuran-3-carboxamide], the results for the inhibition at 1 µM on HDAC9 enzyme, on HDAC6 enzyme and at HDAC1 enzyme were 53%, 98% and 4%, respectively.

In the case of `O=C(N[C@H]1CCOC[C@@H]1N1Cc2ccc(-c3noc(C(F)(F)F)n3)cc2C1=O)[C@@H]1CCOC1` [Example 209, (3R)-N-((3R,4S)-3-(1-oxo-6-(5-(trifluoromethyl)-1,2,4-oxadiazol-3-yl)-1,3-dihydro-2H-isoindol-2-yl)tetrahydro-2H-pyran-4-yl)tetrahydrofuran-3-carboxamide], the inhibition at 1 µM at HDAC9 enzyme was 51%; at HDAC6 enzyme, 48%; at HDAC1 enzyme, 13%.

In the case of `O=C(N[C@H]1CCOC[C@@H]1N1Cc2ccc(-c3noc(C(F)(F)F)n3)cc2C1=O)[C@H]1CCOC1` [Example 210, (3S)-N-((3R,4S)-3-(1-oxo-6-(5-(trifluoromethyl)-1,2,4-oxadiazol-3-yl)-1,3-dihydro-2H-isoindol-2-yl)tetrahydro-2H-pyran-4-yl)tetrahydrofuran-3-carboxamide], the values for the inhibition at 1 µM at HDAC9 enzyme, at HDAC6 enzyme and on HDAC1 enzyme were 56%, 55% and 10%, respectively.

Turning to `O=C(N[C@H]1CCCC[C@@H]1N1Cc2ccc(-c3noc(C(F)(F)F)n3)cc2C1=O)[C@@H]1CCCO1` [Example 217, (2S)-N-((1S,2S)-2-(1-oxo-6-(5-(trifluoromethyl)-1,2,4-oxadiazol-3-yl)-1,3-dihydro-2H-isoindol-2-yl)cyclohexyl)tetrahydrofuran-2-carboxamide], the inhibition at 1 µM at HDAC9 enzyme came out at 53%; on HDAC6 enzyme, 82%; at HDAC1 enzyme it was 21%.

On to `O=C(N[C@H]1CCCC[C@@H]1N1Cc2ccc(-c3noc(C(F)(F)F)n3)cc2C1=O)[C@H]1CCCO1` [Example 218, (2R)-N-((1S,2S)-2-(1-oxo-6-(5-(trifluoromethyl)-1,2,4-oxadiazol-3-yl)-1,3-dihydro-2H-isoindol-2-yl)cyclohexyl)tetrahydrofuran-2-carboxamide], for which the figures for the inhibition at 1 µM on HDAC9 enzyme, at HDAC6 enzyme and on HDAC1 enzyme were 29%, 44% and 5%, respectively.

Take `CC(C)(O)C(=O)N[C@H]1CCCC[C@@H]1N1Cc2ccc(-c3noc(C(F)(F)F)n3)cc2C1=O` [Example 219, 2-hydroxy-2-methyl-N-((1S,2S)-2-(1-oxo-6-(5-(trifluoromethyl)-1,2,4-oxadiazol-3-yl)-1,3-dihydro-2H-isoindol-2-yl)cyclohexyl)propanamide]: the values for the inhibition at 1 µM at HDAC9 enzyme, on HDAC6 enzyme and at HDAC1 enzyme were 50%, 40% and 5%, respectively.

Take `O=C(N[C@H]1COCC[C@@H]1N1Cc2ccc(-c3noc(C(F)(F)F)n3)cc2C1=O)[C@@H]1CC1(F)F` [Example 220, (1S)-2,2-difluoro-N-((3R,4S)-4-(1-oxo-6-(5-(trifluoromethyl)-1,2,4-oxadiazol-3-yl)-1,3-dihydro-2H-isoindol-2-yl)tetrahydro-2H-pyran-3-yl)cyclopropanecarboxamide]: the inhibition at 1 µM came out at 65% at HDAC9 enzyme, 84% at HDAC6 enzyme and 23% on HDAC1 enzyme.

Take `O=C(N[C@H]1COCC[C@@H]1N1Cc2ccc(-c3noc(C(F)(F)F)n3)cc2C1=O)[C@H]1CC1(F)F` [Example 221, (1R)-2,2-difluoro-N-((3R,4S)-4-(1-oxo-6-(5-(trifluoromethyl)-1,2,4-oxadiazol-3-yl)-1,3-dihydro-2H-isoindol-2-yl)tetrahydro-2H-pyran-3-yl)cyclopropanecarboxamide]: the results for the inhibition at 1 µM at HDAC9 enzyme, at HDAC6 enzyme and on HDAC1 enzyme were 86%, 90% and 34%, respectively.
